Reference: patent publication US20220356494A1, “METHODS AND COMPOSITIONS FOR TREATING CANCER” (Engine Biosciences Pte. Ltd., priority 2019, published 2022)
Like-named read-outs stand apart in the source and are kept apart here.

Legend:
cancer cell lines = assay: Cellular IC50 (GI50) of RON inhibitors with or without Dasatinib in cancer cell lines; type: cell-based; conditions: all tested cell lines; co-administered with Dasatinib
Text: FIGS. 12A-12C show additional example data of a small molecule approach to inhibit SRC and RON in cancer cells. As described herein, one approach to validate the CombiGEM results (dual SRC and RON knockout using Cas and DNA constructs) can include using small molecule inhibitors to reduce function of SRC or RON. […] FIG. 12B and FIG. 12C show plots of GI50 as a function of treatment with RON inhibitors Foretinib or a Met/Ron inhibitor, respectively, co-administered with Dasatinib.

[1] = tested on: MDA-MB-231 tumor xenografts; assay: MDA-MB-231 tumor xenograft, tumor volume
RON [2] = target: T1, RON (Homo sapiens, UniProt Q04912); assay: RON inhibition (percent activity vs log concentration)
Text: (§1) The plot indicates percent activity of RON or cMet as a function of the log concentration of the compound (in moles, M). From the plot, the IC50 values may be obtained.

cMet = cMet (Homo sapiens, UniProt P08581); assay: cMet inhibition (percent activity vs log concentration)
Text: as §1

506 cell lines = assay: Sensitivity of 506 cell lines to Dasatinib; type: cell-based; conditions: FIG. 10
Text: The bar plot indicates the effect of various SRC inhibitors, YES inhibitors, or dual SRC/YES inhibitors on the sensitivity of the cells to inhibition; along with an inhibitor for an unrelated/control kinase WEE1. Each bar represents a different type of inhibitor, which may inhibit SRC, YES, SRC and YES, or WEE1. Bars 1-2 from the left of the plot indicate cells are most sensitive to inhibition when SRC and YES are both inhibited. Bars 3-6 from the left of the plot indicate sensitivity to inhibition for cells treated with SRC inhibitors. Bar 7 from the left of the plot indicates sensitivity to inhibition for cells treated with WEE1 inhibitor. […] from the left of the plot also indicate sensitivity to inhibition for cells treated with SRC inhibitors. Bar 9 from the left of the plot indicates sensitivity to inhibition for cells treated with YES1 inhibitor. Bar 10 from the left of the plot indicates sensitivity to inhibition for cells treated with WEE1 inhibitor. Increased sensitivity to inhibition is observed in SRC and YES dual inhibition, compared to SRC-only inhibition or YES-only inhibition. In FIG. 10, 506 cell lines are compared for sensitivity to Dasatinib (SRC and YES inhibitor). 119 of the 506 cell lines are more sensitive to Dasatinib than MDA-MB-231 cells. […] Cell lines that are sensitive to Dasatinib are more sensitive to other dual inhibitors of YES and SRC.

RON [3] = target: T1, RON; assay: RON dissociation constant (Kd); type: binding
Text: The four compounds “ENG-009”, “ENG-015”, “ENG-018”, and“ENG-035” are shown, along with their Ron and cMet inhibitory activities.

MDA-MB-231 cells = assay: MDA-MB-231 cell viability as a function of SU-6656 concentration, with or without Dasatinib co-treatment; type: cell-based; conditions: Homo sapiens, MDA-MB-231, MDA-MB-231, read-out: concentration of SU-6656 at 50% viability
Procedure: An additional approach to validate the CombiGEM results (dual SRC and YES knockout using Cas and DNA constructs) can include using small molecule inhibitors to reduce the function of SRC or YES. […] One group of cells is treated with only the YES inhibitor and the vehicle control (DMSO only). Two groups of cells are co-treated with Dasatinib, a SRC inhibitor, at a concentration of 500 nM or 1 μM. The control group (DMSO only, no Dasatinib) has a 50% viability at a concentration of 68.6 μM of SU-6656, compared to 20.4 μM for the cells co-treated with 500 nM Dasatinib and 12.7 μM for the cells co-treated with 1 μM Dasatinib.

cMet, sequence (P08581 25-1390): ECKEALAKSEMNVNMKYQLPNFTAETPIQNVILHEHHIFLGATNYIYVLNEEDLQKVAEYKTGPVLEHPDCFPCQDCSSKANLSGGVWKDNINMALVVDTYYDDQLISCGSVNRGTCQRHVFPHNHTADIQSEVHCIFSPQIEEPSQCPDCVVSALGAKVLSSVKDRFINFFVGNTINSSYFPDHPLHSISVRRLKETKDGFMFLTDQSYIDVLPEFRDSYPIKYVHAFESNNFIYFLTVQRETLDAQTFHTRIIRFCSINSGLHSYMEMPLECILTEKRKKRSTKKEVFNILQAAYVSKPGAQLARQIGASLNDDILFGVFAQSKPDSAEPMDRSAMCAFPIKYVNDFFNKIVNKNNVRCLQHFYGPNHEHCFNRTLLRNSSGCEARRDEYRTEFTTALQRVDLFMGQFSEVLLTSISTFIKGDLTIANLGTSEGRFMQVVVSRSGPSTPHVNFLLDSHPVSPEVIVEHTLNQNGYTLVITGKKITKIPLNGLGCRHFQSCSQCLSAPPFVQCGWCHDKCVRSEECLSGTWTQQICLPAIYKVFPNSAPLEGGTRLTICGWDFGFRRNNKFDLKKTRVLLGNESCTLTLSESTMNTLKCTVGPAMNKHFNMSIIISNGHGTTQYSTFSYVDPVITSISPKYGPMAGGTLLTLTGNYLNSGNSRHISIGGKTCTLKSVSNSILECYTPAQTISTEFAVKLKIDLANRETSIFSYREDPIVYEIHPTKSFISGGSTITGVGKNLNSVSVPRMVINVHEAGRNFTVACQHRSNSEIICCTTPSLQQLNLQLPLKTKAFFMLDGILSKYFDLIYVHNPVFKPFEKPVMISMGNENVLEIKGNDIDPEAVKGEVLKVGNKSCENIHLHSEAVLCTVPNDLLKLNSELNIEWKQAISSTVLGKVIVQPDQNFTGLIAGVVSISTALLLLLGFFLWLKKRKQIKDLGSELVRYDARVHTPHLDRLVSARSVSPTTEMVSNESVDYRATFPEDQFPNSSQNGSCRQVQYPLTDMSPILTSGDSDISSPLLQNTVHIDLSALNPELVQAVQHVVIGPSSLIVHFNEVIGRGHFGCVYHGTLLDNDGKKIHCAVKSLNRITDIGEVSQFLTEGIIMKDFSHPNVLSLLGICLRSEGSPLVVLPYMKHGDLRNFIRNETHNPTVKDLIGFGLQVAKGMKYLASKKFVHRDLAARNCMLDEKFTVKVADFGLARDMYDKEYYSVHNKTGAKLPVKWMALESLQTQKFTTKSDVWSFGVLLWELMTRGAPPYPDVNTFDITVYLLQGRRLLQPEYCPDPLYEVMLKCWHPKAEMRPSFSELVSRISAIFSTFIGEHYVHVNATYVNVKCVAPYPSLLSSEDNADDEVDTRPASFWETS
T1 sequence (Q04912 25-1400): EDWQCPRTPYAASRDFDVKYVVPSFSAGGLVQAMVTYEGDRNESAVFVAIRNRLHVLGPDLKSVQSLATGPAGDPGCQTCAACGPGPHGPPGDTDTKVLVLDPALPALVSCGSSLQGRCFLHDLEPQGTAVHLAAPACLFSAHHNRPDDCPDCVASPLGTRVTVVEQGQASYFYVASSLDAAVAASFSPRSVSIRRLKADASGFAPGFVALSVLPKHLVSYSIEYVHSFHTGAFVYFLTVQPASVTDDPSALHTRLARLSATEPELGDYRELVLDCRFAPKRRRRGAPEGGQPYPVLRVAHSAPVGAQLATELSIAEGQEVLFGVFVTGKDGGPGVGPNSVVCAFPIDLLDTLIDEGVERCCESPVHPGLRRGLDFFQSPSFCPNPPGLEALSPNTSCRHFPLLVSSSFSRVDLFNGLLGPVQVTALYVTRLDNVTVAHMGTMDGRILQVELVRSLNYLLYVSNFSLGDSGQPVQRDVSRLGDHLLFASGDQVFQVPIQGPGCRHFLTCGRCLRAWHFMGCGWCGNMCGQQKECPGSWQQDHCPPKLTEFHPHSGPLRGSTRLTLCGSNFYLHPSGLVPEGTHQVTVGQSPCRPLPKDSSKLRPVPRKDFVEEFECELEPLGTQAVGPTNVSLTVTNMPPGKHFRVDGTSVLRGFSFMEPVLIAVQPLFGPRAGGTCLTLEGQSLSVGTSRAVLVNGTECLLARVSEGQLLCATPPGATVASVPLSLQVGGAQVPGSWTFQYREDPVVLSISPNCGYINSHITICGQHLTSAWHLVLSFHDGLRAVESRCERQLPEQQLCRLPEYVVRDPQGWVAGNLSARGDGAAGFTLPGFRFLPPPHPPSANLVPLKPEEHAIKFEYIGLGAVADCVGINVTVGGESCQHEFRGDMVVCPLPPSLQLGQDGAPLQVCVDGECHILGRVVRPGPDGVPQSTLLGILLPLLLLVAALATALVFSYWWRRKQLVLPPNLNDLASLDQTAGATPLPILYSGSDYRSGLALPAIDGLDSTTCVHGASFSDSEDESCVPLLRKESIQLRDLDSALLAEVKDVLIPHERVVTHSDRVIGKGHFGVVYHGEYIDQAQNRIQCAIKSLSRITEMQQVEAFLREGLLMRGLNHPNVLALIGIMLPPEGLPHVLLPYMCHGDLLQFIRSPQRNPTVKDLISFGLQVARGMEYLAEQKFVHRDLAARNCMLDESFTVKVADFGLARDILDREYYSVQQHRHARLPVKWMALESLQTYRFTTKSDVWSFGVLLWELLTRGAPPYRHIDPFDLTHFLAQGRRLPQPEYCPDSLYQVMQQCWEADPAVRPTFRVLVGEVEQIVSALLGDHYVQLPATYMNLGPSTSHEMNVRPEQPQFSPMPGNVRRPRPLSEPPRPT

CCOc1ccn(-c2ccc(F)cc2)c(=O)c1C(=O)Nc1ccc(Oc2ccnc(N)c2Cl)c(F)c1 [BMS777607, N-[4-[(2-amino-3-chloro-4-pyridinyl)oxy]-3-fluorophenyl]-4-ethoxy-1-(4-fluorophenyl)-2-oxo-3-pyridinecarboxamide]
potency (GI50) of RON inhibitor in the presence of Dasatinib vs its absence (DMSO) (cancer cell lines): potency (lower GI50) is greater for the RON inhibitor in the presence of Dasatinib than in its absence
tumor growth compared to vehicle control ([1]; RON inhibitor only, BMS777607 20 mpk): slightly lower compared to the vehicle control
IC50 (RON [2]): 8.5 nM
selectivity for RON over cMet (cMet IC50/RON IC50) (RON [2]; ratio): 0.9
IC50 (cMet): 7.3 nM

Cc1nc(Nc2ncc(C(=O)Nc3c(C)cccc3Cl)s2)cc(N2CCN(CCO)CC2)n1.O [Dasatinib, N-(2-chloro-6-methylphenyl)-2-[[6-[4-(2-hydroxyethyl)-1-piperazinyl]-2-methyl-4-pyrimidinyl]amino]-5-thiazole carboxamide monohydrate]
number of the 506 cell lines more sensitive to Dasatinib than MDA-MB-231 cells (506 cell lines): 119
tumor growth compared to vehicle control ([1]; SRC inhibitor only, Dasatinib 10 mpk): slightly lower compared to the vehicle control

Cn1cnc(-c2nc3c(Oc4ccc(NC(=O)c5cnn(-c6ccccc6)c5C(F)(F)F)cc4F)ncnc3s2)c1 [ENG-009, N-(3-fluoro-4-((2-(1-methyl-1H-imidazol-4-yl)thiazolo[5,4-d]pyrimidin-7-yl)oxy)phenyl)-1-phenyl-5-(trifluoromethyl)-1H-pyrazole-4-carboxamide]
IC50 (RON [2]): 222 to 291 nM
cMet inhibition (in words) (cMet): inactive

CCN1CCN(CCCOc2cc3nccc(Oc4c(F)cc(NC(=O)NN5C(=O)CSC5c5c(F)cccc5F)cc4F)c3cc2OC)CC1 (stereo not shown) [ENG-013, 1-(2-(2,6-difluorophenyl)-4-oxothiazolidin-3-yl)-3-(4-((7-(3-(4-ethylpiperazin-1-yl)propoxy)-6-methoxyquinolin-4-yl)oxy)-3,5-difluorophenyl)urea]
IC50 (RON [2]): 1.6 nM
selectivity for RON over cMet (cMet IC50/RON IC50) (RON [2]): approximately 10 fold

Cn1cnc(-c2cc3nccc(Oc4ccc(NC(=O)c5cnn(-c6ccccc6)c5C(F)(F)F)cc4F)c3cn2)c1 [ENG-015, N-(3-fluoro-4-((7-(1-methyl-1H-imidazol-4-yl)-1,6-naphthyridin-4-yl)oxy)phenyl)-1-phenyl-5-(trifluoromethyl)-1H-pyrazole-4-carboxamide]
IC50 (RON [2]): 2.8 nM
selectivity for RON over cMet (cMet IC50/RON IC50) (RON [2]): approximately 50 fold
IC30 for RON (RON [2]; printed as IC30): 2.8 nM
selectivity for RON over cMet (cMet IC50/RON IC50) (RON [2]; ratio): > 47
IC50 (cMet): 133 nM

Cn1cnc(-c2ccc3c(Oc4ccc(NC(=O)c5cnn(-c6ccccc6)c5C(F)(F)F)cc4F)n[nH]c3c2)c1 [ENG-018, N-(3-fluoro-4-((6-(1-methyl-1H-imidazol-4-yl)-1H-indazol-3-yl)oxy)phenyl)-1-phenyl-5-(trifluoromethyl)-1H-pyrazole-4-carboxamide]
RON inhibition (in words) (RON [2]): relatively inactive
cMet inhibition (in words) (cMet): relatively inactive

Cn1cnc(-c2nc3nccc(Oc4ccc(NC(=O)c5cnn(-c6ccccc6)c5C(F)(F)F)cc4F)c3s2)c1 [ENG-035, N-(3-fluoro-4-((2-(1-methyl-1H-imidazol-4-yl)thiazolo[4,5-b]pyridin-7-yl)oxy)phenyl)-1-phenyl-5-(trifluoromethyl)-1H-pyrazole-4-carboxamide]
Kd (RON [3]): 43 nM
selectivity for RON over cMet (cMet IC50/RON IC50) (RON [2]): ~2.3 fold

COc1cc2c(Oc3ccc(NC(=O)C4(C(=O)Nc5ccc(F)cc5)CC4)cc3F)ccnc2cc1OCCCN1CCOCC1 [Foretinib, N1′-[3-fluoro-4-[[6-methoxy-7-(3-morpholinopropoxy)-4-quinolyl]oxy]phenyl]-N1-(4-fluorophenyl)cyclopropane-1,1-dicarboxamide]
potency (GI50) of RON inhibitor in the presence of Dasatinib vs its absence (DMSO) (cancer cell lines): potency (lower GI50) is greater for the RON inhibitor in the presence of Dasatinib than in its absence

CN(C)S(=O)(=O)c1ccc2c(c1)/C(=C/c1cc3c([nH]1)CCCC3)C(=O)N2 [SU-6656, (3Z)-N,N-Dimethyl-2-oxo-3-(4,5,6,7-tetrahydro-1H-indol-2-ylmethylidene)-2,3-dihydro-1H-indole-5-sulfonamide]
IC50 (MDA-MB-231 cells; DMSO only, no Dasatinib): 68600 nM
IC50 (MDA-MB-231 cells; co-treated with 500 nM Dasatinib): 20400 nM
IC50 (MDA-MB-231 cells; co-treated with 1 μM Dasatinib): 12700 nM

CC1=C(C#N)C(c2ccc3[nH]nc(OCCOC(C)C)c3c2)C(C#N)=C(C)N1 [tool compound 2, 4-(3-(2-isopropoxyethoxy)-1H-indazol-5-yl)-2,6-dimethyl-1,4-dihydropyridine-3,5-dicarbonitrile]
IC50 (RON [2]): 8600 nM
